Test results from patent US20230125749A1, “COMPOSITION CONTAINING PEPTIDE OR PEPTIDE COMPOUND AS ACTIVE INGREDIENT, AND MEDICAL USE THEREFOR” (AJOU UNIVERSITY INDUSTRY-ACADEMIC COOPERATION FOUNDATION, priority 2019, published 2023).

System: intraperitoneal macrophages
Assay: Fluorescence-labeled cells among intraperitoneal macrophages after oral administration of fluorescence-conjugated peptides to normal mice
Type: in vivo, mouse
Details: measured after 48 and 72 hours, FIG. 10
Procedure: Furthermore, peptides 1, 2, and 4 were orally administered to normal mice after conjugation with each different fluorescence, and the frequency of fluorescence-labeled cells was measured among intraperitoneal macrophages after 48 and 72 hours.

## LICPEKYCNKVHT [P1]
  time for which the fluorescence-labeled peptide was maintained among intraperitoneal macrophages: up to 72 hours
